{
  "source": "patent US8642284B1",
  "about": "“Methods for identifying agents that alter NAD-dependent deacetylation activity of a SIR2 protein” (Massachusetts Institute of Technology, priority 1999, dated 2014)",
  "key": {"[1]": {"target": "T1, Sir2p (Saccharomyces cerevisiae, UniProt P06700)", "T1 construct": "purified recombinant yeast (rSir2p) protein, mouse Sir2 (mSir2α) proteins and vector controls; 6×His; made in house; host or cells: E. coli BL21 (DE3), pET28a", "T1 sequence (P06700 whole entry)": "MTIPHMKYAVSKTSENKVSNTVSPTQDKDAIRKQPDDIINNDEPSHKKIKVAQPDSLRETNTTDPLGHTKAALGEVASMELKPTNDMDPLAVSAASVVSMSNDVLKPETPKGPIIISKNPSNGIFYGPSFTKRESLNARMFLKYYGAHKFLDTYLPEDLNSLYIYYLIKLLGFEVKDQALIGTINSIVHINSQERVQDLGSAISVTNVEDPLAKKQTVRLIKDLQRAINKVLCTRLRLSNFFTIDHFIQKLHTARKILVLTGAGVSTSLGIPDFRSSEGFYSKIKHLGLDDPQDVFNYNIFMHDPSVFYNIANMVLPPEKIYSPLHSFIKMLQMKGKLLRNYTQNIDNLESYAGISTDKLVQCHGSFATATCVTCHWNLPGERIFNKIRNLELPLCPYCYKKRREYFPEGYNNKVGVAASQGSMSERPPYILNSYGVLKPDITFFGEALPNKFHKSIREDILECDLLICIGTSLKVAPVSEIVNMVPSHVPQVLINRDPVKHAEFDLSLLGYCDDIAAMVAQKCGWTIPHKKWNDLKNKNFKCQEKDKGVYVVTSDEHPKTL", "experiment": "NAD-dependent deacetylation of di-acetylated H3 peptide by recombinant yeast Sir2p (HPLC)", "format": "biochemical", "conditions": "200 μM", "procedure": "(§1) The typical reaction of Sir2 deacetylase activity was performed in 50 μl of buffer containing 50 mM Tris-HCl [pH 9.0], 4 mM MgCl2, 0.2 mM DTT, variable concentration of cold nicotinamide adenine dinucleotide (NAD) or NAD derivatives (SIGMA®, MO), 5-10 μg of the purified recombinant Sir2 proteins, and 10 μg of the histone H3 N-terminal tail peptide (amino acid 1-20) di-acetylated at positions 9 and 14 (Upstate Biotechnology™, NY). […] To detect the ADP-ribosylation activity, 8 μCi of NAD 5′-[α-^32P]triphosphate (˜1000 Ci/mmol, Amersham Pharmacia Biotech™, NJ) was added to the same reaction containing 1 μM cold NAD. Histone H3 protein (4 μg) (Roche Molecular Biochemicals™, IN) were used for this assay. All reaction mixtures were incubated at room temperature for 1 hr. Trichostatin A and coumermycin A1 (SIGMA™) were prepared in dimethylsulfoxide (DMSO, SIGMA®), and 5 μl of solvent or inhibitor was added to the reactions prior to adding Sir2 proteins.\nAfter the incubation, the products were precipitated at −20° C. overnight by adding 50 μl of distilled water and 25 μl of 100% trichloroacetic acid (TCA) solution. For high pressure liquid chromatography (HPLC), the precipitates were reconstituted in 5% CH3CN and 0.1% trifluoroacetic acid (TFA) and run in the gradient concentration between 0.05% TFA and 0.043% TFA plus 80% CH3CN on Hewlett Packard Model 1100 HPLC system with 214TP52 column (VYDAC, CA). The chromatograms at the absorbance of 210 nm were digitally recorded and analyzed by Hewlett Packard ChemStation™ system (version A.06.03 [509]). Fractions of samples were collected every 1 min by Gilson™ Fraction Collector Model 203. Peptide sequencing was done by the Applied Biosystems PROCISE® 494 HT protein sequencing system. PTH amino acid chromatograms were recorded and analyzed by the ABI Model 610A2.1 data integration/analysis system.\nThe experiments employed purified recombinant Sir2p in a reaction with NAD and a peptide of the histone H3 amino-terminal tail (residues 1-20) di-acetylated at lysines 9 and 14. These lysines are hypoacetylated in silenced chromatin and mutations at these positions to glycine greatly reduce silencing in vivo (Thompson, J. S., et al., Nature 369: 245-247 (1994)). The products of a reaction containing 5 μg of recombinant yeast Sir2p (79 pmoles) (FIG. 8a), 10 μg of the H3 peptide (4.2 nmoles) increasing concentrations of NAD were analyzed s by high pressure liquid chromatography (HPLC)."}, "[2]": {"target": "T1, Sir2p", "experiment": "ADP-ribosylation and NAD hydrolysis by recombinant yeast Sir2p (intact histone H3, H3 peptide; SDS-PAGE, TLC)", "format": "biochemical", "conditions": "200 μM; for inhibition of NAD hydrolysis by Sir2p: H3 peptide, TLC; for inhibition of ADP-ribosylation by Sir2p: intact histone H3 and H3 peptide", "procedure": "(§2) The typical reaction was performed in 50 or 100 μl of the buffer containing 5 mM Tris-HCl [pH8.0 or 9.0], 4 mM MgCl2, 0.2 mM DTT, 1 μM cold β-NAD^+ (SIGMA®) and 8 μCi nicotinamide adenine dinucleotide 5′[α-^32P]triphosphate (NAD) as a donor of ADP-ribose (˜1000 Ci/mmol, Amersham Pharmacia Biotech). To check the sensitivity to poly- or mono-ADP-ribosylation inhibitors, 3-aminobenzamide (ICN Pharmaceuticals, CA), benzamide, novobiocin and coumermycin A1 (SIGMA®) were added to the reactions prior to adding Sir2 proteins, respectively. The wild type or mutant recombinant proteins (0.5-1 μg for ySir2p and 10 μg of mSir2α) were added with 4 μg of each histone purchased from Roche Molecular Biochemicals (Indianapolis, Ind.). For the peptide experiments, 5-10 μg of unacetylated or acetylated N-terminal tail peptides (amino acids 1-20) of H3 and H4 purchased from Upstate Biotechnology™ (Lake Placid, N.Y.) were used as substrates of the yeast and mouse Sir2 recombinant proteins.\nas §1\nElectron-spray mass spectroscopy (also referred to herein as mass spectroscopy) was done on the PE Sciex Model API365™ system. Matrix assisted laser desorption/ionization (MALDI) mass spectroscopy can also be used. The electron-spray mass spectroscopy data were analyzed by the BioMultiView Program™ (version 1.3.1). To detect the ADP-ribosylated intact H3 protein, the pellets were dissolved in 15 μl of Leammli sample buffer, boiled for 1.5 min and electrophoresed in a 10-20% gradient SDS-PAGE gel. The gel was stained with Coomassie Brilliant Blue to check equal loading of histones, dried, and exposed to KODAK® X-OMAT film. […]\nThe effects of a known inhibitor of mono-ADP-ribosyltransferases, coumermycin A1 (Banasik, M., et al., Mol. Cell. Biochem. 138: 185-187 (1994)) was evaluated. […]"}, "[3]": {"tested_on": "mono-ADP-ribosyltransferases", "conditions": "literature value; read-out: reported IC50 concentration; cited from earlier work"}, "[4]": {"target": "T2, mSir2α (Mus musculus, UniProt Q923E4)", "T2 construct": "ADP-ribosylase activity of bacterial recombinant full-length proteins of ySir2p and mSir2α was determined in in vitro assays; 6×His; made in house; host or cells: E. coli BL21 (DE3) pLysS with an extra copy of arginine tRNA gene, pET28a", "T2 sequence (Q923E4 1-737)": "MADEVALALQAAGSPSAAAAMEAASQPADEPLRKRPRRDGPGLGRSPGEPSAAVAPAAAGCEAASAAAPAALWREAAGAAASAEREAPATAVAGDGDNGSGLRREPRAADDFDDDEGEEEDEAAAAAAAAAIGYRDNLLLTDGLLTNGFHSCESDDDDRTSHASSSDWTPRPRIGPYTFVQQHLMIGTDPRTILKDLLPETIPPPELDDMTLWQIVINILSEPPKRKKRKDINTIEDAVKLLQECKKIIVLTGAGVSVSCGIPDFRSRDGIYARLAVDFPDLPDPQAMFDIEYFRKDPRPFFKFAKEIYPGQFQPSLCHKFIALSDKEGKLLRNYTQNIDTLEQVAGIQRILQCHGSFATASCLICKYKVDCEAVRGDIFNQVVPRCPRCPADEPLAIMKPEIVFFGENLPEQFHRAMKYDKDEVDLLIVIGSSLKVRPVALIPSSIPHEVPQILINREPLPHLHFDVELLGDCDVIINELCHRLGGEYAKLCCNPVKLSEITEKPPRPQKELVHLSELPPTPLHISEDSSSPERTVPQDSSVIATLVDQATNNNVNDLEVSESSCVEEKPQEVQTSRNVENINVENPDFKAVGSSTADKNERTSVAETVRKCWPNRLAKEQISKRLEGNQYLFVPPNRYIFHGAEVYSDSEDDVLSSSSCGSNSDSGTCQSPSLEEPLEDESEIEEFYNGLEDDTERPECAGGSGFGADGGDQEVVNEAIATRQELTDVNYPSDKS", "experiment": "ADP-ribosylation assay, sensitivity of mSir2α to poly- and mono-ADP-ribosylation inhibitors (histone H2B, 32P-NAD)", "format": "biochemical", "conditions": "40 μM", "procedure": "as §2\nTo analyze histone modification, 25 μl of 100% trichloroacetic acid (TCA) solution was mixed to the reaction mixture and left on ice for 15 min. The protein precipitates were centrifuged at 4° C. and washed with 5 or 20% TCA solution twice. The pellets were dissolved in 15 μl of Leammli's sample buffer and boiled for 1.5 min. The proteins were electrophoresed in a 10-20% gradient SDS-PAGE gel. The gel was stained with COOMASSIE® Brilliant Blue R-250 (GibcoBRL Life Technologies™, Frederick, Md.) to check equal loading of histones, dried, and exposed to KODAK® X-OMAT film.\nThe sensitivity of the ADP-ribosylase activity of mSir2α to poly ADP-ribosylation inhibitors (3-aminobenzamide and benzamide) and mono-ADP-ribosylation inhibitors (novobiocin and coumermycin A1) was evaluated. (FIG. 4F)."}},
  "note": "pIC50: −log10 of the molar value. “Also recorded” adds a separate entry of the source.",
  "data": [
    {"smiles": "CO[C@H]1[C@H](OC(=O)c2ccc(C)[nH]2)[C@H](O)[C@@H](Oc2ccc3c(O)c(NC(=O)c4c[nH]c(C(=O)Nc5c(O)c6ccc(O[C@H]7OC(C)(C)[C@@H](OC)[C@H](OC(=O)c8ccc(C)[nH]8)[C@@H]7O)c(C)c6oc5=O)c4C)c(=O)oc3c2C)OC1(C)C", "note": "[coumermycin A1]", "values": [
      {"measurement": "inhibition of deacetylation of the H3 tail by Sir2p", "setting": "[1]", "value": "did not inhibit; also recorded: not capable of inhibiting"},
      {"measurement": "inhibition of NAD hydrolysis by Sir2p", "setting": "[2]", "value": "inhibited"},
      {"measurement": "inhibition of NAD hydrolysis by Sir2p", "setting": "[2]; listed as Coumermycin A1", "value": "inhibit"},
      {"measurement": "inhibition of ADP-ribosylation by Sir2p", "setting": "[2]", "value": "inhibited"},
      {"measurement": "inhibition of ADP-ribosylation by Sir2p", "setting": "[2]; listed as Coumermycin A1", "value": "inhibit"},
      {"measurement": "pIC50", "setting": "[3]", "value": 4.57},
      {"measurement": "inhibition of ADP-ribosylation by mSir2α", "setting": "[4]", "value": "strongly inhibited"}
    ]}
  ]
}
